PMC12114297 (Molecules, 2025)

Assays:
[1] = system: Staphylococcus aureus ATCC 25923; assay: Agar well diffusion, S. aureus; format: cell-based; conditions: for Antibacterial activity in words: agar well diffusion, particularly S. aureus; for zone of inhibition at 1000 µg/mL: Staphylococcus aureus, ATCC25923, 60 µL of 1 mg/mL per well, ZOI including the well (6 mm), ± SD, n = 3, ciprofloxacin disk 5 μg, read-out: Staphylococcus aureus ATCC 25923 ZOI
Description: (§1) The antimicrobial potential of the synthesized coumarin–triazole–isatin hybrids was evaluated by the agar well diffusion method. The activity was tested against a variety of Gram-positive bacteria (Staphylococcus aureus ATCC 25923 and ATCC 902710, Staphylococcus epidermidis ATCC 12228, Streptococcus pyogenes ATCC 19615, Enterococcus faecalis ATCC 51299), Gram-negative bacteria (Escherichia coli ATCC 25922, Haemophilus influenzae ATCC 49766, Pseudomonas aeruginosa ATCC 27853, Salmonella typhi ATCC 14028, Neisseria meningitidis ATCC 13090, Neisseria gonorrhoeae ATCC 43069), and fungi (Candida albicans ATCC 60193 and ATCC 90028, Candida orientalis ATCC 6258). All microbial strains were obtained from Microbiologics (St.Cloud, MN, USA).
(§2) The test compounds were dissolved in DMSO to obtain stock solutions (1 mg/mL). Each compound (60 µL) was transferred into wells (6 mm in diameter) that were previously perforated into agar plates inoculated with microbial suspensions standardized to 0.5 McFarland for bacteria and 2 McFarland for Candida spp. DMSO was used as a negative control, while commercial antibiotic disks of novobiocin (5 μg), ampicillin (10 μg), and ciprofloxacin (5 μg) served as positive controls. Antimicrobial activity was assessed by measuring the diameter of zones of inhibition (ZOIs) in millimeters. All tests were conducted in triplicate.

[2] = system: Staphylococcus epidermidis ATCC 12228; assay: Agar well diffusion, S. epidermidis; format: cell-based; conditions: ATCC12228, read-out: Staphylococcus epidermidis ATCC 12228 ZOI, 60 µL of 1 mg/mL per well, ZOI including the well (6 mm), ± SD, n = 3, ciprofloxacin disk 5 μg
Description: as §1, §2

[3] = target: T1, BChE from equine serum (eqBuChE) (Equus caballus, UniProt P81908); assay: biochemical; conditions: average ± standard error (n = 3); for inhibition at 20 µM: read-out: BChE % of Inhibition (Conc. 20 μM), 20 μM
T1 construct: BChE from equine serum (BChE, EC 3.1.1.8); purchased Sigma-Aldrich (St. Louis, MO, USA); host or cells: equine serum
T1 sequence (P81908 whole entry): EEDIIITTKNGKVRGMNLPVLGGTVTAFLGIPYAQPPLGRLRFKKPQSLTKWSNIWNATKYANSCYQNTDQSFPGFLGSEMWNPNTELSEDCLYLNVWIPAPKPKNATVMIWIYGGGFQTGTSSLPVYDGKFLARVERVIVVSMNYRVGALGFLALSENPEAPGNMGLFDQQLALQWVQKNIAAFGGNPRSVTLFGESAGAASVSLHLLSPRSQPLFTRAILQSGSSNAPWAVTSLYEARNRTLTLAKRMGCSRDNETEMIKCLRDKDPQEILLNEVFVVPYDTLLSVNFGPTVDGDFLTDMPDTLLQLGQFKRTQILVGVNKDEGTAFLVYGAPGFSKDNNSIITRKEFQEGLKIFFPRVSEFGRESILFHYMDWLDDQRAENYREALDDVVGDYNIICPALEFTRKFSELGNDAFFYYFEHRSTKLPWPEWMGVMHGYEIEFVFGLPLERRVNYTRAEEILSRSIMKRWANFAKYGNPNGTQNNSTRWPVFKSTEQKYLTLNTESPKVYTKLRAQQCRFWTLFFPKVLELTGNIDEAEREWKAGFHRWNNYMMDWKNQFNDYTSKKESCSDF
Description: The in vitro cholinesterase inhibitory activity of the synthesized hybrid molecules was evaluated using a modified Ellman’s assay, optimized for 96-well microplate application. AChE from Electrophorus electricus (AChE, EC 3.1.1.7), BChE from equine serum (BChE, EC 3.1.1.8), acetylthiocholine iodide (ATCh), butyrylthiocholine iodide (BTCh), and 5,5′-dithiobis(2-nitrobenzoic acid) were purchased from Sigma-Aldrich (St. Louis, MO, USA) and used without further purification.
Test compounds were initially dissolved in dimethylsulphoxide (DMSO) to yield 1 mM stock solutions and subsequently diluted with 0.1 M phosphate buffer (pH 8.0) to prepare working solutions.
For the assay, 20 µL of compound solution was added to 140 µL of 0.1 M phosphate buffer (pH 8.0) in each well, followed by 20 µL of enzyme solution (AChE or BuChE, 100 U/L). After incubation at room temperature for 10 min, the reaction was initiated by adding 10 µL of DTNB (0.01 M) and 10 µL of substrate (ATCh or BTCh, 0.015 M). […] The percentage inhibition of enzyme activity was calculated using the following equation:(1) % Inhibition=Absorbance of control−Apsorbance of sample/Absorbance of control×100 where the absorbance of the control represents the maximum enzyme activity (without inhibition), and the absorbance of the sample corresponds to the enzyme activity in the presence of the tested compound. Appropriate blanks were included to account for background absorbance and to correct for any intrinsic color of the tested compounds.
All experiments were performed in triplicate.

[4] = target: T2, AChE from Electrophorus electricus (eeAChE) (Electrophorus electricus, UniProt O42275); assay: biochemical; conditions: read-out: AChE % of Inhibition (Conc. 20 μM)
T2 construct: purchased Sigma-Aldrich (St. Louis, MO, USA)
T2 sequence (O42275 24-633): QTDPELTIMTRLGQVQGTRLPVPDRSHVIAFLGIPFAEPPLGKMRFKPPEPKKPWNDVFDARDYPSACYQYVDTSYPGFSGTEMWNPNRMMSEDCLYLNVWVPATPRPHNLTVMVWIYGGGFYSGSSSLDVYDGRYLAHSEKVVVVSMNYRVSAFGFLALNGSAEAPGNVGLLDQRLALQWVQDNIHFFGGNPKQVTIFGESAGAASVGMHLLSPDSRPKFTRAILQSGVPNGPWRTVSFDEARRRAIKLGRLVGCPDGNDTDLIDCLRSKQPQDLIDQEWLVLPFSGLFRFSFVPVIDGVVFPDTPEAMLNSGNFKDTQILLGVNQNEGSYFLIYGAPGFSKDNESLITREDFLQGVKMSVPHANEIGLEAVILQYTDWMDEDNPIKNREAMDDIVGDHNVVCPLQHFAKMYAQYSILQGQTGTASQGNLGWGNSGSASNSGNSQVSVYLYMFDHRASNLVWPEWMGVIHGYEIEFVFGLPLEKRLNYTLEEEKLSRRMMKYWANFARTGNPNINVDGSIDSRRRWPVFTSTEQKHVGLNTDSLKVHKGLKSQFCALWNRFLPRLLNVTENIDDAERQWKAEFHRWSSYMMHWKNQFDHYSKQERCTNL

Structure (SMILES) | Antibacterial activity in words [1] | zone of inhibition at 1000 µg/mL [2] | IC50 [3] | inhibition at 20 µM [3] | inhibition at 20 µM [4] | BChE % of Inhibition (Conc. 20 μM) [3] | zone of inhibition at 1000 µg/mL [1]
O=C1C(=O)N(Cc2cn(CCCOc3cc(=O)oc4ccccc34)nn2)c2ccc(I)cc21 [Compound 6b5, 5-iodo-1-((1-(3-((2-oxo-2H-chromen-4-yl)oxy)propyl)-1H-1,2,3-triazol-4-yl)methyl)indoline-2,3-dione] | largely inactive | 14.8 ± 1.44 mm | 14.8 ± 1.44 µM | 61.6 ± 7.49% | 27.6 ± 1.49% |  | 
O=C1C(=O)N(Cc2cn(CCCOc3cc(=O)oc4ccccc34)nn2)c2ccc([N+](=O)[O-])cc21 [Compound 6b6, 5-nitro-1-((1-(3-((2-oxo-2H-chromen-4-yl)oxy)propyl)-1H-1,2,3-triazol-4-yl)methyl)indoline-2,3-dione] | largely inactive |  |  | < 6% | 17.9 ± 1.91% | 5.89 ± 1.91% | 
Cc1ccc2c(c1)C(=O)C(=O)N2Cc1cn(CCCOc2cc(=O)oc3ccccc23)nn1 [Compound 6b7, 5-methyl-1-((1-(3-((2-oxo-2H-chromen-4-yl)oxy)propyl)-1H-1,2,3-triazol-4-yl)methyl)indoline-2,3-dione] | largely inactive |  |  |  | 24.4 ± 1.27% | 4.88 ± 0.27% | 
O=C1C(=O)N(Cc2cn(CCCCOc3cc(=O)oc4ccccc34)nn2)c2ccc(Cl)cc21 [Compound 6c3, 5-chloro-1-((1-(4-((2-oxo-2H-chromen-4-yl)oxy)butyl)-1H-1,2,3-triazol-4-yl)methyl)indoline-2,3-dione] | only weak antibacterial activity |  |  | 5.19 ± 1.14% | 44.2 ± 3.14% |  | 10.7 ± 3.06 mm
O=C1C(=O)N(Cc2cn(CCCCOc3cc(=O)oc4ccccc34)nn2)c2ccc(Br)cc21 [Compound 6c4, 5-bromo-1-((1-(4-((2-oxo-2H-chromen-4-yl)oxy)butyl)-1H-1,2,3-triazol-4-yl)methyl)indoline-2,3-dione] | only weak antibacterial activity |  |  | 27.1 ± 2.19% | 9.84 ± 1.19% |  | 12 to 20 mm
O=C1C(=O)N(Cc2cn(CCCCOc3cc(=O)oc4ccccc34)nn2)c2ccc(I)cc21 [Compound 6c5, 5-iodo-1-((1-(4-((2-oxo-2H-chromen-4-yl)oxy)butyl)-1H-1,2,3-triazol-4-yl)methyl)indoline-2,3-dione] | largely inactive |  |  | 22.9 ± 1.64% | 11.2 ± 1.64% |  | 
O=C1C(=O)N(Cc2cn(CCCCOc3cc(=O)oc4ccccc34)nn2)c2ccc([N+](=O)[O-])cc21 [Compound 6c6, 5-nitro-1-((1-(4-((2-oxo-2H-chromen-4-yl)oxy)butyl)-1H-1,2,3-triazol-4-yl)methyl)indoline-2,3-dione] | largely inactive |  |  | < 6% | 19 ± 1.96% | 4.15 ± 0.54% | 
Cc1ccc2c(c1)C(=O)C(=O)N2Cc1cn(CCCCOc2cc(=O)oc3ccccc23)nn1 [Compound 6c7, 5-methyl-1-((1-(4-((2-oxo-2H-chromen-4-yl)oxy)butyl)-1H-1,2,3-triazol-4-yl)methyl)indoline-2,3-dione] | largely inactive |  |  | < 11% | 12.1 ± 1.26% | 10.32 ± 1.53% | 
COc1cc2c(cc1OC)C(=O)C(CC1CCN(Cc3ccccc3)CC1)C2 (centres unmarked) [Donepezil, donepezil, reference compound] |  |  |  | 74.2 ± 6.17% |  |  | 
